“Also recorded” adds a separate entry of the source.
Experiments:
apelin receptor = conditions: SAR study of short ELA fragments; cited from earlier work
furin = test: buffer-based ELA-32 digestion study; conditions: cited from earlier work
rat plasma in vitro = conditions: cited from earlier work
[1] = human kidney homogenised in 50 mM HEPES solution, pH 7.4; conditions: 37 °C, up to 120 min
[2] = human plasma, pooled from four healthy human donors; conditions: 37 °C, up to 240 min

Row | Sequence | binding to the apelin receptor (in words) (apelin receptor) | fragment found (furin) | fragment found (rat plasma in vitro) | fragment found [1] | cleaved bond [2]
1 | LHSRVPFP [ELA-8, ELA-32 fragment from loss of N-terminal amino acids] | completely lost its ability to bind the apelin receptor | – | – | – | –
2 | QRPVNLTMRRKLRKHNCLQRRCMPLHSRVPFP | – | ELA-11 | ELA-22; also recorded: ELA-32(1-9) | ELA-23, earliest time points; also recorded: ELA-17, 60 min | R-R and L-R, major, 60 min and R-K, first_seen, within 2 min and H-N, major, 60 min and Arg21-Cys22, major, 60 min and proline-phenylalanine

— publication PMC8484864 (Peptides, 2021)
